# Test results: ChEMBL document CHEMBL5241100, “Sulfonamide derivatives as potential anti-cancer agents and their SARs elucidation” (Eur J Med Chem, 2021)
# Tests used:
# [1] = molecular target: T1, Carbonic anhydrase 9 (Homo sapiens, UniProt Q16790)
# [2] = test system: HSC-2; assay: Cytotoxicity against human HSC-2 cells assessed as reduction in cell viability by MTT assay; assay type: functional
# [3] = molecular target: Carbonic anhydrase 2 (Homo sapiens, UniProt P00918); assay: Inhibition of human CA2
# [4] = molecular target: Carbonic anhydrase 12 (Homo sapiens, UniProt O43570); assay: Inhibition of human CA12
# [5] = molecular target: T1, Carbonic anhydrase 9; assay: Inhibition of human CA9
# [6] = molecular target: Carbonic anhydrase 1 (Homo sapiens, UniProt P00915); assay: Inhibition of human CA1
# [7] = test system: Ca9-22; assay: Cytotoxicity against human Ca9-22 cells assessed as reduction in cell viability by MTT assay; assay type: functional
# [8] = test system: HCT-116; assay: cells; conditions: Homo sapiens, HCT-116, 48 h
# [9] = Oral bioavailability in mouse; assay type: ADME, organism-based; conditions: in vivo
# [10] = molecular target: T2, Induced myeloid leukemia cell differentiation protein Mcl-1 (Homo sapiens, UniProt Q07820); assay: Inhibition of TAMRA-labeled BIM-BH3 peptide binding to 6His-tagged human recombinant Mcl-1 (171 to 327 residues) incubated for 120 mins by fluorescence polarization assay
# [11] = molecular target: T2, Induced myeloid leukemia cell differentiation protein Mcl-1; assay: Inhibition of fluorescent-labeled BID-BH3 peptide binding to Mcl-1 (unknown origin) by fluorescence polarization assay
# [12] = test system: Jurkat; assay type: functional, cell-based; conditions: Homo sapiens, 72 h
# [13] = test system: MOLT-4; assay type: functional, cell-based; conditions: Homo sapiens, MOLT-4, 72 h
# [14] = test system: HL-60; assay type: functional, cell-based; conditions: Homo sapiens, HL-60, 72 h
# [15] = test system: RS4-11; assay type: functional, cell-based; conditions: Homo sapiens, RS4-11, 72 h
# [16] = test system: KG-1; assay type: functional, cell-based; conditions: Homo sapiens, KG-1, 72 h
# [17] = molecular target: Apoptosis regulator Bcl-2 (Homo sapiens, UniProt P10415); assay: Inhibition of fluorescent-labeled BID-BH3 peptide binding to Bcl-2 (unknown origin) by fluorescence polarization assay
# [18] = molecular target: T2, Induced myeloid leukemia cell differentiation protein Mcl-1; assay: Inhibition of fluorescent-labeled BID-BH3 peptide binding to Mcl-1 (unknown origin) incubated for 20 mins by fluorescence polarization assay
# [19] = molecular target: T1, Carbonic anhydrase 9; assay: Inhibition of carbonic anhydrase 9 (unknown origin) using 4-nitrophenylacetate as substrate by UV/visible spectrophotometer analysis
# [20] = molecular target: DNA topoisomerase 1 (Homo sapiens, UniProt P11387); assay: Inhibition of topoisomerase 1 (unknown origin) assessed as relaxation of supercoiled […] incubated for 30 mins ethidium bromide staining based UV transilluminator analysis
# [21] = Inhibition of topoisomerase 2 (unknown origin) assessed as relaxation of supercoiled kDNA incubated for 30 mins ethidium bromide staining based UV transilluminator analysis; parameters: species or system Homo sapiens
# [22] = molecular target: Aromatase (Homo sapiens, UniProt P11511); assay: Inhibition of human aromatase preincubated with NADPH regenerating system for 10 mins followed by substrate addition by fluorescence based analysis
# [23] = test system: HepG2; assay: Antiproliferative activity against human HepG2 cells assessed as inhibition of cell growth by SRB assay; assay type: functional, cell-based
# [24] = molecular target: T2, Induced myeloid leukemia cell differentiation protein Mcl-1; assay: Inhibition of FITC-labeled BID-BH3 peptide binding to Mcl-1 (unknown origin) by fluorescence polarization assay
# [25] = test system: A-375; assay: Cytotoxicity against human A-375 cells assessed as inhibition of cell growth; assay type: functional
# [26] = test system: MOLM-13; assay: Antitumor activity against human MOLM-13 cells xenografted in mouse assessed as tumor growth inhibition administered with carfilzomib; assay type: functional
# [27] = test system: OPM-2; assay: Antitumor activity against firefly luciferase-labeled human OPM-2 cells xenografted in mouse assessed as tumor growth inhibition at 20 mg/kg, po administered once daily with carfilzomib at 3 mg/kg, iv administered twice weekly and measured after 19 days; assay type: functional; conditions: OPM-2, 456 h, time 19 day
# [28] = Half life in iv dosed mouse; assay type: ADME, organism-based; conditions: in vivo
# T2 sequence (Q07820 whole entry, the tested form may be a part): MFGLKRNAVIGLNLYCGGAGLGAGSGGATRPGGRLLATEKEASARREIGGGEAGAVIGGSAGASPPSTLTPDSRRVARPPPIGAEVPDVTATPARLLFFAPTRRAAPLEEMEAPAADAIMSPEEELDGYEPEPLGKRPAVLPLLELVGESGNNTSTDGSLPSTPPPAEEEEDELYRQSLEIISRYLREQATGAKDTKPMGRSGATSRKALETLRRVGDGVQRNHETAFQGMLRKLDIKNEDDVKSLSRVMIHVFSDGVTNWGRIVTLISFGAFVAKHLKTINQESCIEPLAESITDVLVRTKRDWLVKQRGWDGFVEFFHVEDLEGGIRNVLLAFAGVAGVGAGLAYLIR
# Chain of Carbonic anhydrase 12 (O43570 whole entry): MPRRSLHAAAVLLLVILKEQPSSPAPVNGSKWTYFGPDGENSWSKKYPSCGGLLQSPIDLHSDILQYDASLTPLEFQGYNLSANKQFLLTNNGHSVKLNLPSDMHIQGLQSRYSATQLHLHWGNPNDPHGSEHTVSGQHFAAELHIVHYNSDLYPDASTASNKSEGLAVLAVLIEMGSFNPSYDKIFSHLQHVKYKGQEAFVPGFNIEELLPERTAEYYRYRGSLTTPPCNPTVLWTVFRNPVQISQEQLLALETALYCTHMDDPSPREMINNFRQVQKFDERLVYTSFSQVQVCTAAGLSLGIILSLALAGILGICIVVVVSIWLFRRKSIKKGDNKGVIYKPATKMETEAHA
# Chain of Carbonic anhydrase 1 (P00915 whole entry): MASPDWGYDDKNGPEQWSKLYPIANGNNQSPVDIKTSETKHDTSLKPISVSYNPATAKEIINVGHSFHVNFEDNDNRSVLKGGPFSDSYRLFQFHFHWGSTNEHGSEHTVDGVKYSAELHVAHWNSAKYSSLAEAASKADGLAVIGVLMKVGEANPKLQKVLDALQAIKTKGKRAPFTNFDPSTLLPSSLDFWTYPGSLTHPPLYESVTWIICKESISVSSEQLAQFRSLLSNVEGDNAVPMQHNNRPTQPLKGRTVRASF
# Chain of Apoptosis regulator Bcl-2 (P10415 whole entry): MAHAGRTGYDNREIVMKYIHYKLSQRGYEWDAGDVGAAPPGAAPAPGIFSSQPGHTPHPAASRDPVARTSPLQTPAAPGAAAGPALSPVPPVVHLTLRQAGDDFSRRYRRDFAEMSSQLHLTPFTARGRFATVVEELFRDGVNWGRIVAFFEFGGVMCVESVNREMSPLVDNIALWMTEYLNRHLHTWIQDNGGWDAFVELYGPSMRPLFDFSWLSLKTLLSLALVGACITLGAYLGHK
# Chain of Aromatase (P11511 whole entry): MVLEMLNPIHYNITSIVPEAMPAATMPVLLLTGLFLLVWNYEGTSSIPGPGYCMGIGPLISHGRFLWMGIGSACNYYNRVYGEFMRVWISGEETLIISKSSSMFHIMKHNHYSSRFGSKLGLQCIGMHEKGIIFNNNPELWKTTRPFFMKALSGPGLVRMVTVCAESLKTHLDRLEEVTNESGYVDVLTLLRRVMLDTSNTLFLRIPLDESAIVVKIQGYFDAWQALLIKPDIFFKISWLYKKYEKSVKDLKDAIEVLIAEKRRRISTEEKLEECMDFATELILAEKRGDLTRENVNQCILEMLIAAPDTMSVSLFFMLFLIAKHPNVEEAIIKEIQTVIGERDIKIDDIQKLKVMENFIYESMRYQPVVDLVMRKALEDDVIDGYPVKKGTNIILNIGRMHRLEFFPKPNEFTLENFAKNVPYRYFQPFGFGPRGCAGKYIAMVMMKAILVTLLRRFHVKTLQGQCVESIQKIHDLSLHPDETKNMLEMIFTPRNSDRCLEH
# Chain of DNA topoisomerase 1 (P11387 whole entry): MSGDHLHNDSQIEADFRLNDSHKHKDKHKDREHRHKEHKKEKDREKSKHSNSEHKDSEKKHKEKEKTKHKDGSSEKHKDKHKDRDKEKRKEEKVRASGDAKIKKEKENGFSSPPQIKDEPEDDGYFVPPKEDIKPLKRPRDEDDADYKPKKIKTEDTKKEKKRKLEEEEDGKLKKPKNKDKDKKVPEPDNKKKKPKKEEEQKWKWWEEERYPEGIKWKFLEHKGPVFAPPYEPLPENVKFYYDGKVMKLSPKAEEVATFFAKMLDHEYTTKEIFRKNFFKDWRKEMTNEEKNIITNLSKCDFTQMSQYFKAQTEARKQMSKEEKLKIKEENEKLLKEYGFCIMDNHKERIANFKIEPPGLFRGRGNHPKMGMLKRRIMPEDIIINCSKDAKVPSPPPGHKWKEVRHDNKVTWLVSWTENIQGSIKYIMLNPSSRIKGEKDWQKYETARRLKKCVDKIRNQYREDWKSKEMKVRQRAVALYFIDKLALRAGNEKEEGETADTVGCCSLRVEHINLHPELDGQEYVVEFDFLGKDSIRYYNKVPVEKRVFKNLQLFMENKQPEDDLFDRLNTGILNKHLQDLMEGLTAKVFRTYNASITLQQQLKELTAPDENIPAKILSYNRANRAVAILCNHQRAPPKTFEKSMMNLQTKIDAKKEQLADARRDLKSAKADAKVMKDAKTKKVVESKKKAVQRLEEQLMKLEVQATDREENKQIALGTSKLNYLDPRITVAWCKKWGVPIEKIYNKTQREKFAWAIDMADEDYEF
smiles,measurement,setting,value
NS(=O)(=O)c1ccc(O)cc1,IC50,[1],32 µM
COc1cc(C2CC(c3cccs3)=NN2c2ccc(S(N)(=O)=O)cc2)cc(OC)c1OC (stereo not given),CC50,[2],6.3 µM
same,Ki,[3],0.089 µM
same,Ki,[4],≥ 0.009 µM
same,Ki,[5],≥ 0.044 µM
same,Ki,[6],≥ 0.23 µM
same,CC50,[7],6.3 µM
NS(=O)(=O)c1ccc(CC/N=C2\NC(=O)/C(=C3/C(=O)Nc4ccc(F)cc43)S2)cc1,IC50,[8],3.67 µM
CC[C@@H]1CC/C=C/[C@H](O)[C@@H]2CC[C@H]2CN2C[C@@]3(CCCc4cc(Cl)ccc43)COc3ccc(cc32)C(=O)NS1(=O)=O,bioavailability,[9],6%
COc1cc(C2CC(c3ccc(F)cc3)=NN2c2ccc(S(N)(=O)=O)cc2)cc(OC)c1OC (stereo not given),CC50,[2],6.3 µM
same,Ki,[3],0.089 µM
same,Ki,[4],≥ 0.009 µM
same,Ki,[5],≥ 0.044 µM
same,Ki,[6],≥ 0.23 µM
same,CC50,[7],6.3 µM
CO[C@@H]1O[C@H](Cn2cc(COc3ccc(S(N)(=O)=O)cc3)nn2)[C@@H](O)[C@H](O)[C@H]1O,IC50,[1],0.007 µM
O=C1NSCCOCCCCCCN2C[C@@]3(CCc4cc(Cl)ccc43)COc3ccc1cc32,IC50,[10],0.01 µM
O=C(NS(=O)(=O)c1ccc(Cl)c([N+](=O)[O-])c1)[C@@H]1Cc2cc(Br)c(OCc3ccc(-c4ccccc4)cc3)c(Br)c2CC1Cc1ccc([N+](=O)[O-])cc1 (stereo not given in full),Ki,[11],0.26 µM
same,IC50,[12],12.8 µM
same,IC50,[13],12.8 µM
same,IC50,[14],12.8 µM
same,IC50,[15],12.8 µM
same,IC50,[16],12.8 µM
same,Ki,[17],0.41 µM
O=C(NS(=O)(=O)c1ccc(Cl)c([N+](=O)[O-])c1)c1nn(Cc2ccc(Cl)c(Cl)c2)c2ccccc12,Ki,[18],0.43 µM
CC(C)CN1C[C@H](c2ccc(Cl)cc2Cl)Oc2ccc(C(=O)O)cc21,IC50,[10],2.1 µM
Nc1ccc(S(=O)(=O)Nc2ccsc2-c2nc(-c3ccccc3)no2)cc1,IC50,[19],0.74 µM
N#Cc1ccc(CC2Cc3c(cc(Br)c(OCc4ccc(-c5ccccc5)cc4)c3Br)C[C@H]2C(=O)NS(=O)(=O)c2ccc(Cl)c([N+](=O)[O-])c2)cc1 (stereo not given in full),Ki,[11],0.35 µM
same,IC50,[12],12.8 µM
same,IC50,[13],12.8 µM
same,IC50,[14],12.8 µM
same,IC50,[15],12.8 µM
same,IC50,[16],12.8 µM
same,Ki,[17],0.45 µM
CC1CCN(S(=O)(=O)c2ccc(-c3ccno3)cc2)CC1,IC50,[20],27.8 µM
same,IC50,[21],33.6 µM
COc1cc2c(cc1OC)CN(S(=O)(=O)c1cccc(-n3cc(COc4ccc5ccccc5c4)nn3)c1)CC2,IC50,[22],0.07 µM
CC1CCN(S(=O)(=O)c2ccc(C(=O)c3coc4ccc(O)cc34)cc2)CC1,IC50,[23],6.2 µM
Cc1cc(S(=O)(=O)N2CC(C(=O)O)Cc3ccccc32)cc(C)c1Cl (racemic),Ki,[24],0.12 µM
same,GI50,[25],50 µM
Cc1cc2c(C(C)C)c(O)c(O)c(C=O)c2c(O)c1-c1c(C)cc2c(C(C)C)c(O)c(O)c(C=O)c2c1O [GOSSYPOL],Ki,[18],0.45 µM
CO[C@H]1/C=C/C[C@H](C)[C@@H](C)S(=O)(=O)NC(=O)c2ccc3c(c2)N(C[C@@H]2CC[C@H]21)C[C@@]1(CCCc2cc(Cl)ccc21)CO3 [TAPOTOCLAX],inhibition (INH),[26],99%
same,bioavailability,[9],32%
same,inhibition in vivo at 20 mg/kg,[27],99%
same,half-life,[28],14 h
